These results are taken from BindingDB's records for doi:10.7270/Q2697202 (Nmmlsc, 2008).

A word on the EC50: it is the concentration needed to bring the measured effect to its halfway point.

Induced myeloid leukemia cell differentiation protein Mcl-1, sequence (Q07820 whole entry): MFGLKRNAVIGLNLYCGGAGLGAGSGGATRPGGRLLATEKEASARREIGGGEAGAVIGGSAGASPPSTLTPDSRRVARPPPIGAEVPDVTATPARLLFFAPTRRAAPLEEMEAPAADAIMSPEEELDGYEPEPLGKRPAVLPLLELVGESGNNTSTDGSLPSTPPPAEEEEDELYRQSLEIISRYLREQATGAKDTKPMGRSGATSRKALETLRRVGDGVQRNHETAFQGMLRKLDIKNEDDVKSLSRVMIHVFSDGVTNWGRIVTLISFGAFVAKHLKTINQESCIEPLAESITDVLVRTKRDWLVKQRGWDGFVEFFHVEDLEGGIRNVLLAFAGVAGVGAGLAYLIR

The first assay has as its target Induced myeloid leukemia cell differentiation protein Mcl-1 (Homo sapiens, UniProt Q07820). Nature of the assay: modulators of Bim peptide binding to Mcl-1, dose response, biochemical, bead-based flow cytometry, multiplexed, human (AID 1329).
Settings: not given
Background: In flow cytometry, cells or beads pass a laser one at a time.
Take `CCN1/C(=C/C(C)=C/c2sc3ccccc3[n+]2CC)Sc2ccccc21` [SMR000354813]: the midpoint of the response, the EC50, lay at 41.2 µM.

Take `Cc1ccc(-c2nc(N3CCOCC3)s[n+]2-c2ccccc2)cc1` [SMR000225370]: a half-maximal effect (EC50) was put at 2.04 µM.

For the compound `CN1CCc2cccc3c2[C@@H]1Cc1ccc(O)c(O)c1-3`, it took 38.6 µM to reach a half-maximal effect (EC50).

In the case of `COc1cc(CN=Nc2nn3cnnc3c3ccccc23)ccc1O` [(4E)-2-methoxy-4-[[2-([1,2,4]triazolo[3,4-a]phthalazin-6-yl)hydrazinyl]methylidene]cyclohexa-2,5-dien-1-one], a half-maximal effect (EC50) was put at 5.05 µM.

`Nc1c(C(=O)NC2CC2)sc2nc3c(c(-c4ccco4)c12)CC/C3=C/c1ccco1` [SMR000259554] had an EC50 of 5.86 µM.

`Nc1c(C(=O)NCC2CCCO2)sc2nc3c(c(-c4ccco4)c12)CC/C3=C\c1ccco1` (stereo unspecified) [SMR000259502]: the EC50 was 6 µM.

`COc1cc(C=NNC(=O)CN(Cc2ccco2)S(=O)(=O)c2ccccc2)ccc1O` [N-(2-furanylmethyl)-N-[2-[[(E)-(3-methoxy-4-oxo-1-cyclohexa-2,5-dienylidene)methyl]hydrazo]-2-oxoethyl]benzenesulfonamide] came in with an EC50 of 11.4 µM.

`c1ccc(-c2nc(N3CCOCC3)[s+]n2-c2ccccc2)cc1` showed an EC50 of 9.74 µM.

`COc1cccc2c(SCC(=O)NN=Cc3ccc(O)cc3O)cc(C)nc12` [N'-[(E)-(2-hydroxy-4-oxo-1-cyclohexa-2,5-dienylidene)methyl]-2-[(8-methoxy-2-methyl-4-quinolinyl)thio]acetohydrazide] registered an EC50 of 29 µM.

On to `Cc1nc2ncccn2c1-c1csc(Nc2ccc(O)cc2)n1`, for which a half-maximal response (EC50) required 0.39 µM.

The compound `CCC(/C=C1\Sc2ccc(OC)cc2N1CCO)=C\c1sc2ccc(OC)cc2[n+]1CCO` gave an EC50 of 19.3 µM.

On to `Cc1nnc2ccc(-c3cccc(NC(=O)c4ccco4)c3)nn12` [SMR000324305], for which the EC50 was determined as 5.76 µM.

The assay is the same for the next values; noted with them: inactive by the depositor's call.
`COc1cc2nc(=S)n(CCCN3CCOCC3)c(N)c2cc1OC`: a half-maximal response (EC50) required 6.14 µM.

For `O=C(/C=C/c1ccccc1Cl)c1ccccc(=O)c1O` [3-[(E)-3-(2-chlorophenyl)prop-2-enoyl]-2-oxidanyl-cyclohepta-2,4,6-trien-1-one], the EC50 was found to be 19.4 µM.

In turn, `C#CCn1cc(C=C2C(=O)c3ccccc3C2=O)c2ccccc21` [SMR000196125] gave an EC50 of 16.3 µM.

Take `CCOC(=O)c1c(O)nc2ccc(Cl)c3c2c1-c1ccccc1C3=O` [MLS000704595]: the EC50 is 9.29 µM.

In turn, `O=C(Nc1ccccc1)c1ccc2nc(-c3ccco3)c(-c3ccco3)nc2c1` [2,3-di-2-furyl-N-phenyl-6-quinoxalinecarboxamide] registered an EC50 of 39.6 µM.

The compound `Cc1nc2ncccn2c1-c1csc(Nc2ccccc2)n1` [4-(2-methyl-3-imidazo[1,2-a]pyrimidinyl)-N-phenyl-2-thiazolamine] had an EC50 of 8.97 µM.

Compound `Cc1ccc(C=NNC(=O)CSc2nnc(-c3ccc(Cl)cc3)n2-c2ccccc2)o1` [SMR000218122] had an EC50 of 5.71 µM.

As to `COc1cc2nc(=S)[nH]c(NCC3CCCO3)c2cc1OC` (stereo unspecified) [6,7-dimethoxy-4-(2-oxolanylmethylamino)-1H-quinazoline-2-thione], the EC50 was determined as 1.9 µM.

For the compound `Cc1ccnc(Nc2nc(-c3c(C)nc4sccn34)cs2)c1` [[4-(6-Methyl-imidazo[2,1-b]thiazol-5-yl)-thiazol-2-yl]-(4-methyl-pyridin-2-yl)-amine], a half-maximal response (EC50) required 16.7 µM.

In turn, `CN(N=C/C=C/c1ccccc1)C1=NS(=O)(=O)c2ccccc21` [(1E,2E)-3-phenylacrylaldehyde (1,1-dioxido-1,2-benzisothiazol-3-yl)(methyl)hydrazone] came in with an EC50 of 5.53 µM.

`c1ccc(Nc2cccc(Nc3ccccc3)n2)cc1` [N,N'-diphenyl-2,6-pyridinediamine] returned an EC50 of 12.2 µM.

With `Cc1cccc(OCC(=O)NCC(=O)NN=Cc2cc(Br)ccc2OCc2ccccc2)c1` [N-[(5-bromanyl-2-phenylmethoxy-phenyl)methylideneamino]-2-[2-(3-methylphenoxy)ethanoylamino]ethanamide], the concentration giving a half-maximal response (EC50) is 7.78 µM.

Compound `O=C(/C=C\c1ccc(-c2ccccc2)o1)c1ccccc1` [(Z)-1-phenyl-3-(5-phenyl-2-furanyl)-2-propen-1-one] yielded an EC50 of 20.7 µM.

Compound `CN(C)c1ncc(C2=C(Cl)C(=O)C(N3CCCC3)=C(Cl)C2=O)s1` yielded an EC50 of 3.71 µM.

In turn, `CCOCCCNc1nc(S)nc2cc(OC)c(OC)cc12` showed an EC50 of 2.54 µM.

Take `CCOCCCn1c(N)c(C(=O)Nc2sc3c(c2C(=O)OC)CCCC3)c2nc3ccccc3nc21`: a half-maximal effect (EC50) was put at 1.85 µM.

In turn, `O=C1/C(=C\c2ccc(-c3ccccc3Cl)o2)SC(=S)N1CC1CCCO1` (stereo unspecified) [(5E)-5-[[5-(2-chlorophenyl)furan-2-yl]methylidene]-3-(oxolan-2-ylmethyl)-2-sulfanylidene-1,3-thiazolidin-4-one] had an EC50 of 2.14 µM.

`Cc1cc(C)nc(SCc2cc(=O)c(OC(=O)c3ccc(Cl)c([N+](=O)[O-])c3)co2)n1` [4-chloro-3-nitrobenzoic acid [6-[[(4,6-dimethyl-2-pyrimidinyl)thio]methyl]-4-oxo-3-pyranyl] ester] registered an EC50 of 5.92 µM.

In turn, `O=S1(=O)N=C(N(CCO)N=C/C=C/c2ccccc2)c2ccccc21` came in with a 50% effective concentration (EC50) of 20.9 µM.

`Cc1cc2n(c1)CCn1c(C)ccc1-2` [MLS000104384]: the EC50 amounted to 21 µM.

In turn, `COCCNc1[nH]c(=S)nc2cc(OC)c(OC)cc12` yielded an EC50 of 4.54 µM.

In the case of `CN(N=Cc1cccnc1)C1=NS(=O)(=O)c2ccccc21` [SMR000207578], the midpoint of the response, the EC50, lay at 20.6 µM.

In turn, `O=C1c2ccccc2-c2onc3ccc(N4CCCC4)c1c23` [SMR000279741] registered an EC50 of 69.7 µM.

`CCOC(=O)c1ccc(Nc2nc(C(=O)OCC)nc3ccccc23)cc1` showed an EC50 of 4.52 µM.

`O=C(c1ccccc1)c1ccc2nc(-c3ccco3)c(-c3ccco3)nc2c1` registered an EC50 of 45.4 µM.

Regarding `CN(N=Cc1ccncc1)C1=NS(=O)(=O)c2ccccc21` [isonicotinaldehyde (1,1-dioxido-1,2-benzisothiazol-3-yl)(methyl)hydrazone], the EC50 amounted to 2.74 µM.

For the compound `COc1ccc(C2=Nn3c(nnc3-c3ccco3)SC2)cc1OC` [6-(3,4-Dimethoxy-phenyl)-3-furan-2-yl-7H-[1,2,4]triazolo[3,4-b][1,3,4]thiadiazine], the EC50 amounted to 2.94 µM.

Turning to `COCCCn1c(N)c(C(=O)Nc2sc3c(c2C(=O)OC)CCCC3)c2nc3ccccc3nc21` [MLS000595323], the EC50 turned out to be 3.12 µM.

Consider `COCCCNc1nc(S)nc2cc(OC)c(OC)cc12` [SMR000026607], for which the EC50 stood at 1.74 µM.

In turn, `COCCNC(=S)Nc1cc(OC)c(OC)cc1C#N` [1-(2-cyano-4,5-dimethoxy-phenyl)-3-(2-methoxyethyl)thiourea] yielded an EC50 of 7.11 µM.

In the case of `Cc1ccc(C(=O)/C=C/c2ccc(-c3ccc(C)cc3)o2)cc1` [1-p-Tolyl-3-(5-p-tolyl-furan-2-yl)-propenone], a half-maximal effect (EC50) was put at 2.61 µM.

Compound `CCCCNc1[nH]c(=S)nc2cc(OC)c(OC)cc12` [MLS000520261] yielded an EC50 of 1.04 µM.

As for `Cc1cc2nn(-c3cccc4ccccc34)nc2cc1N` [SMR000076237], the EC50 is 1.75 µM.

`O=C(Nc1ccc2nc(-c3ccco3)c(-c3ccco3)nc2c1)N1CCN(c2ccccn2)CC1`: the concentration for a half-maximal effect (EC50) was found to be 10.9 µM.

`CCN1C(=O)/C(=C/C=C2\C=CN(CC)c3ccccc32)SC1=S` displayed an EC50 of 15.8 µM.

As for `CCOC(=O)c1nc(Nc2ccc(C(=O)OC)cc2)c2ccccc2n1` [ethyl 4-(4-methoxycarbonylanilino)quinazoline-2-carboxylate], the response was half-maximal at 14.7 µM (EC50).

Turning to `COc1cc2nc(=S)[nH]c(NCCc3ccc(S(N)(=O)=O)cc3)c2cc1OC` [MLS000674601], the EC50 turned out to be 0.36 µM.

`O=C(NCc1ccccc1)c1ccc2nc(-c3ccco3)c(-c3ccco3)nc2c1` [2,3-bis(furan-2-yl)-N-(phenylmethyl)quinoxaline-6-carboxamide]: the EC50 came out at 7.82 µM.

As for `Cc1cc(-c2nnc3n2N=C(c2ccc(-c4ccccc4)cc2)CS3)[nH]n1` [MLS000082991], a half-maximal effect (EC50) was put at 9.39 µM.

`Cc1ccnc(SCc2cc(=O)c(OC(=O)c3ccc(Cl)c([N+](=O)[O-])c3)co2)n1` [MLS000696790] registered an EC50 of 39.5 µM.

As for `Cc1ccc(-c2ccc(/C=C/C(=O)c3ccccc3)o2)cc1`, the EC50 was 13.2 µM.

Consider `COc1ccc(C)cc1-n1c(=O)c2ccccc2c2ccccc2c1=O` [MLS000682999], for which the EC50 stood at 16 µM.

The compound `CN1CCN(C2=C(Cl)C(=O)C(c3cnc(N4CCCCC4)s3)=C(Cl)C2=O)CC1` yielded an EC50 of 0.7 µM.

Regarding `Clc1nc(NCc2cccnc2)nc(N2CCOCC2)n1` [MLS000121154], the EC50 came out at 16.9 µM.

`O=C(CSc1ccc2nnc(-c3ccccn3)n2n1)Nc1nccs1` [2-[[3-(2-pyridinyl)-[1,2,4]triazolo[4,3-b]pyridazin-6-yl]thio]-N-(2-thiazolyl)acetamide] registered an EC50 of 11.8 µM.

With `COc1ccc(/C=C/C(=O)c2cc(Br)ccc(=O)c2O)cc1` [MLS000702099], the EC50 turned out to be 33.2 µM.

For `COc1ccc(-n2c(=O)c3ccccc3c3ccccc3c2=O)c(OC)c1`, the EC50 is 26.9 µM.

`COc1ccc(OC)c(-n2c(=O)c3ccccc3c3ccccc3c2=O)c1` [SMR000236434] yielded an EC50 of 16.7 µM.

For `Fc1ccc(C2=Nc3cccc4cccc(c34)N2)cc1` [MLS000687139], it took 10.5 µM to reach a half-maximal effect (EC50).
